How the values were obtained:
[1] = test system: THP-1 macrophages; assay: Transwell migration assay of THP-1 macrophages with U87 conditioned media; type: cell-based; details: conditioned media from U87 cells pretreated with SR9009 5 μM
Description: Migration assay. To study the relationship between macrophages and microglia, HMC3 microglia or THP-1 macrophages were seeded into the 24-well plates (receiver wells) using serum-containing culture medium for 24 hours to reach 40-60% confluence and then stimulated with or without U87 cell CM for additional 24 hours. After that, cells were washed with PBS twice and cultured in serum-free culture medium. For upper chambers, THP-1 macrophages (2×10^5) and HMC3 microglia (5×10^4) were suspended in serum-free culture medium and seeded into […] (Corning, #3421) and […] (Corning, #3422) 24-well Transwell inserts, respectively. To study the role of GBM cells on microglia migration, HMC3 microglia (5×10^4) were suspended in serum-free culture medium and seeded into 8.0 μm inserts. SIM-A9 microglia (1×10^5) and THP-1 macrophages (1×10^5) were suspended in serum-free culture medium and seeded into 5.0 μm inserts. The CM from LOX-depleted or inhibited U87 cells, LOX-overexpressed GL261 cells, or SR9009-treated U87 cells were added to the receiver wells, respectively. After 10 hours, migrated cells were fixed with 4% PFA (ThermoFisher, #J61899.AK) for 30 minutes and stained with crystal violet (Sigma-Aldrich, #C-3886) for another 30 minutes. The membrane inserts were washed with water and imaged under an EVOS microscope. The number of transferred cells was counted using ImageJ.

[2] = test system: PATZ1 and PRRX1; assay: RT-qPCR of transcription factors in PTEN-null GBM cells; type: cell-based, human; details: U87 and U251 cells; BAPN 200 μM
Description: Cell Culture. The GBM cell lines U87, U251, SF763, LN229, and CT2A, as well as 293T cells were cultured in Dulbecco's Modified Eagle's Medium (DMEM; Gibco, #11995-065). The mouse glioma cell line GL261 cells and SIM-A9 microglia were cultured in Dulbecco's Modified Eagle Medium-Ham's F12 medium (Gibco, #10565-018). HMC3 microglia were cultured in Eagle's Minimum Essential Medium (ATCC, #30-2003). THP-1 macrophages were cultured in RPMI 1640 medium (Gibco, #11875093). All cell lines were cultured in the indicated medium containing 10% fetal bovine serum (FBS; Fisher Scientific, #16140071) and 1:100 antibiotic-antimycotic (Gibco, #15140-122), and were purchased from the American Type Culture Collection (ATCC). Human GSCs (GSC23 and GSC7-10) and mouse GBM tumor-derived 005 GSCs and QPP7 GSCs were cultured in neural stem cell (NSC) proliferation media (Millipore, #SCM005) containing 20 ng/mL epidermal growth factor (EGF; PeproTech, #AF-100-15) and basic fibroblast growth factor (bFGF; PeproTech, #100-18B). Human GSCs were gifted by Dr. Frederick F. Lang from the Brain Tumor Center (The University of Texas MD Anderson Cancer Center). […]
Quantitative real-time PCR (RT-qPCR). […] RNA was quantified by NanoDrop spectrophotometers and then the All-In-One 5× RT MasterMix (Applied Biological Materials, #G592) was used to reverse-transcribe RNA into cDNA in T100 Thermal Cycler (Bio-Rad). […]

[3] = test system: CT2A cells; assay: Survival of mice intracranially implanted with CT2A cells; type: in vivo, C57BL/6 mice; details: CT2A 2×10^4 cells/mouse; BAPN 2 g/L drinking water from day 4; SR9009 100 mg/kg i.p. 10 days from day 7; anti-PD1 10 mg/kg i.p. days 11, 14, 17; radiation 2.5 Gy 4 days from day 7
Description: Mice and Intracranial Xenograft Tumor Models. Female C57BL/6 mice at 3 to 4 weeks of age were purchased from the Jackson Laboratory (#0000664). All animals were grouped by 5 mice per cage and maintained in IVC System (San Diego, CA) for a week before the experiment. All animal experiments were performed with the approval of the Institutional Animal Care and Use Committee (IACUC) at Northwestern University. The intracranial xenograft tumor models were established previously. In brief, mice were anesthetized by isoflurane through IMPAC6 Anesthesia System. Then a dental drill was used to open a small hole in the skull of mice 1.2 mm anterior and 3.0 mm lateral to the bregma. Mice were placed into the stereotactic apparatus, and 5 μL 005 GSC, CT2A, or GL261 cells in FBS-free culture medium were injected into the right caudate nucleus 3 mm below the surface of the brain using a 10 μL Hamilton syringe with an unbeveled 30-gauge needle. The incision was closed using Vetbond glue. Meloxicam (20 mg/kg, daily) was subcutaneously injected for pain relief for 3 days after surgery. […]
Statistical analysis. […] The survival analysis for animal models was determined by conducting Log-rank (Mantel-Cox) test. […]

Row | Compound | migration ability of THP-1 macrophages [1] | mRNA expression of PATZ1 [2] | mRNA expression of PRRX1 [2] | survival [3]
1 | CCOC(=O)N1CCC(CN(Cc2ccc(Cl)cc2)Cc2ccc([N+](=O)[O-])s2)C1 (stereo not shown) [SR9009] | did not change | – | – | –
2 | N#CCCN [BAPN, β-aminopropionitrile] | – | upregulated | upregulated | extended the survival

Source: patent US20250186396A1, “COMPOSITIONS AND METHODS FOR THE TREATMENT OF GLIOBLASTOMA WITH A DUAL TARGETING ANTI-TUMOR COMPOSITION” (Northwestern University, priority 2023, published 2025)
